In patent publication US10874104B2, “Pesticidally active pryazole derivatives” (SYNGENTA PARTICIPATIONS AG, priority 2016, dated 2020):
Like-named read-outs stand apart in the source and are kept apart here.

Assays:
Assay type in all cases: in vivo
[1] = test system: Diabrotica balteata (Corn Root Worm); assay: Diabrotica balteata (corn root worm), sprayed maize sprouts on agar, mortality; details: 96 h
Procedure: Diabrotica balteata (Corn Root Worm):
Maize sprouts placed onto an agar layer in 24-well microtiter plates were treated with aqueous test solutions prepared from 10′000 ppm DMSO stock solutions by spraying. After drying, the plates were infested with L2 larvae (6 to 10 per well). The samples were assessed for mortality 4 days after infestation.

[2] = test system: Euschistus heros (Neotropical Brown Stink Bug); assay: Euschistus heros (neotropical brown stink bug), feeding/contact activity, mortality; details: 120 h
Procedure: Euschistus heros (Neotropical Brown Stink Bug): Feeding/contact activity
(§1) Soybean leaves on agar in 24-well microtiter plates were sprayed with aqueous test solutions prepared from 10′000 ppm DMSO stock solutions. After drying the leaves were infested with N2 nymphs. The samples were assessed for mortality 5 days after infestation.

[3] = test system: Tetranychus urticae (Two-Spotted Spider Mite); assay: Tetranychus urticae (two-spotted spider mite), feeding/contact activity, mortality; details: 192 h, application rate 200 ppm, mixed population (mobile stages), 8 days after infestation
Procedure: Tetranychus urticae (Two-Spotted Spider Mite): Feeding/Contact Activity
as §1, with “Bean leaf discs” for “Soybean leaves”, “leaf discs” for “leaves”, “a mite population of mixed ages.” for “N2 nymphs.”, “on mixed population (mobile stages) 8” for “5”

[4] = test system: Spodoptera littoralis (Egyptian Cotton Leaf Worm); assay: Spodoptera littoralis (Egyptian cotton leaf worm), feeding/contact activity, mortality; details: 72 h
Procedure: Spodoptera littoralis (Egyptian Cotton Leaf Worm): Feeding/Contact Activity
Cotton leaf discs were placed onto agar in 24-well microtiter plates and sprayed with aqueous test solutions prepared from 10′000 ppm DMSO stock solutions. After drying the leaf discs were infested with five L1 larvae. The samples were assessed for mortality 3 days after infestation.

[5] = test system: Myzus persicae (Green Peach Aphid); assay: Myzus persicae (green peach aphid), feeding/contact activity, mortality; details: 144 h, application rate 200 ppm, aphid population of mixed ages, 6 days after infestation
Procedure: Myzus persicae (Green Peach Aphid): Feeding/Contact Activity
(§2) Sunflower leaf discs were placed onto agar in a 24-well microtiter plate and sprayed with aqueous test solutions prepared from 10′000 ppm DMSO stock solutions. After drying, the leaf discs were infested with an aphid population of mixed ages. The samples were assessed for mortality 6 days after infestation.

[6] = test system: Plutella xylostella (Diamond Back Moth); assay: Plutella xylostella (diamond back moth), feeding/contact activity on artificial diet, mortality; details: 120 h
Procedure: Plutella xylostella (Diamond Back Moth): Feeding/Contact Activity
24-well microtiter plates with artificial diet were treated with aqueous test solutions prepared from 10′000 ppm DMSO stock solutions by pipetting. After drying, the plates were infested with L2 larvae (10 to 15 per well). The samples were assessed for mortality 5 days after infestation.

[7] = test system: Thrips tabaci (Onion Thrips); assay: Thrips tabaci (onion thrips), feeding/contact activity, mortality; details: 144 h
Procedure: Thrips tabaci (Onion Thrips): Feeding/Contact Activity
as §2, with “on” for “onto”, “in” for “in a”, “plates” for “plate”, “drying” for “drying,”, “a thrips” for “an aphid”

[8] = application rate 200 ppm, L2 larvae, 4 days after infestation, read-out: mortality
[9] = application rate 200 ppm, N2 nymphs, 5 days after infestation, read-out: mortality
[10] = application rate 200 ppm, L1 larvae, 3 days after infestation, read-out: mortality
[11] = application rate 200 ppm, L2 larvae on artificial diet, 5 days after infestation, read-out: mortality
[12] = application rate 200 ppm, thrips population of mixed ages, 6 days after infestation, read-out: mortality

Measured: mortality at 200 ppm

Cn1nc(C(F)(F)C(F)(F)F)c(OC(F)F)c1-n1cc(-c2cnc(Cl)c(C(=O)NC3(C#N)CC3)c2)cn1 [Compound 21]
≥ 80%: [1]; [8] | [2]; [9] | [3] | [4]; [10] | [5] | [6]; [11]

Cn1nc(C(F)(F)C(F)(F)F)c(OCC(F)F)c1-n1cc(-c2ccc(Cl)c(C(=O)NC3CC3)c2)cn1 [Compound 44]
≥ 80%: [1]; [8] | [3] | [4]; [10] | [6]; [11]

Cn1nc(C(F)(F)C(F)(F)F)c(S(=O)(=O)C2CC2)c1-n1cc(-c2ccc(Cl)c(C(=O)NC3(C#N)CC3)c2)cn1 [Compound 35]
≥ 80%: [1]; [8] | [2]; [9] | [3] | [7]; [12] | [4]; [10] | [6]; [11]

Cn1nc(C(F)(F)C(F)(F)F)c(OC(F)F)c1-n1cc(-c2ccc(Cl)c(C(=O)NC3(C#N)CC3)c2)cn1 [Compound 1, 2-chloro-N-(1-cyanocyclopropyl)-5-[1-[4-(difluoromethoxy)-2-methyl-5-(1,1,2,2,2-pentafluoroethyl)pyrazol-3-yl]pyrazol-4-yl]benzamide]
≥ 80%: [1]; [8] | [2]; [9] | [3] | [4]; [10] | [5] | [6]; [11]

COc1c(C(F)(F)C(F)(F)F)nn(C)c1-n1cc(-c2ccc(Cl)c(C(=O)NC3CC3)c2)cn1 [Compound 6]
≥ 80%: [1]; [8] | [2]; [9] | [3] | [7]; [12] | [4]; [10] | [6]; [11]

Cn1nc(C(F)(F)C(F)(F)F)c(OC(F)(F)C(F)C(F)(F)F)c1-n1cc(-c2ccc(Cl)c(C(=O)NCc3ccccc3)c2)cn1 (centres unmarked) [Compound 57]
≥ 80%: [5]

Cn1nc(C(F)(F)C(F)(F)F)c(SC2CC2)c1-n1cc(-c2ccc(Cl)c(C(=O)NC3(C#N)CC3)c2)cn1 [Compound 19]
≥ 80%: [1]; [8] | [2]; [9] | [3] | [7]; [12] | [4]; [10] | [5] | [6]; [11]

C=Cc1c(C(F)(F)C(F)(F)F)nn(C)c1-n1cc(-c2ccc(Cl)c(C(=O)NC3(C#N)CC3)c2)cn1 [Compound 15, 2-Chloro-N-(1-cyanocyclopropyl)-5-[1-[2-methyl-5-(1,1,2,2,2-pentafluoroethyl)-4-vinyl-pyrazol-3-yl]pyrazol-4-yl]benzamide]
≥ 80%: [1]; [8] | [2]; [9] | [3] | [4]; [10] | [5] | [6]; [11]

Cn1nc(C(F)(F)C(F)(F)F)c(OC(F)(F)C(F)F)c1-n1cc(-c2ccc(Cl)c(C(=O)NC3(C#N)CC3)c2)cn1 [Compound 37]
≥ 80%: [1]; [8] | [2]; [9] | [3] | [7]; [12] | [4]; [10] | [6]; [11]

Cn1nc(C(F)(F)C(F)(F)F)c(OC(F)(F)C(F)(F)C(F)(F)F)c1-n1cc(-c2ccc(Cl)c(C(=O)NC3(C#N)CC3)c2)cn1 [Compound 40]
≥ 80%: [1] | [2] | [7] | [4] | [6]

C=Cc1c(C(F)(F)C(F)(F)F)nn(C)c1-n1cc(-c2ccc(Cl)c(C(=O)NC3CC3)c2)cn1 [Compound 16, 2-Chloro-N-cyclopropyl-5-[1-[2-methyl-5-(1,1,2,2,2-pentafluoroethyl)-4-vinyl-pyrazol-3-yl]pyrazol-4-yl]benzamide]
≥ 80%: [1]; [8] | [2]; [9] | [3] | [7]; [12] | [4]; [10] | [5] | [6]; [11]

Cn1nc(C(F)(F)C(F)(F)F)c(S(=O)(=O)C2CC2)c1-n1cc(-c2ccc(Cl)c(C(=O)NC3CC3)c2)cn1 [Compound 33]
≥ 80%: [1]; [8] | [2]; [9] | [3] | [7]; [12] | [4]; [10] | [6]; [11]

Cn1nc(C(F)(F)C(F)(F)F)c(OC(F)(F)C(F)C(F)(F)F)c1-n1cc(-c2ccc(Cl)c(C(=O)NC3(C#N)CC3)c2)cn1 (centres unmarked) [Compound 43]
≥ 80%: [1]; [8] | [7]; [12] | [4]; [10] | [6]; [11]

Cn1nc(C(F)(F)C(F)(F)F)c(OC(F)F)c1-n1cc(-c2ccc(C#N)c(C(=O)NC3CC3)c2)cn1 [Compound 62]
≥ 80%: [1]; [8]

CCOc1c(C(F)(F)C(F)(F)F)nn(C)c1-n1cc(-c2ccc(Cl)c(C(=O)NC3(C#N)CC3)c2)cn1 [Compound 38]
≥ 80%: [1]; [8] | [2]; [9] | [3] | [4]; [10] | [6]; [11]

Cn1nc(C(F)(F)C(F)(F)F)c(OCC(F)F)c1-n1cc(-c2ccc(Cl)c(C(=O)NC3(C#N)CC3)c2)cn1 [Compound 39]
≥ 80%: [1]; [8] | [2]; [9] | [3] | [4]; [10] | [6]; [11]

Cn1nc(C(F)(F)C(F)(F)F)c(OC(F)(F)C(F)C(F)(F)F)c1-n1cc(-c2ccc(Cl)c(C(=O)NC3CC3)c2)cn1 (centres unmarked) [Compound 46]
≥ 80%: [1]; [8] | [7]; [12] | [4]; [10] | [6]; [11]

Cn1nc(C(F)(F)C(F)(F)F)c(OC(F)F)c1-n1cc(-c2ccc(Cl)c(C(=O)NC3CC3)c2)nn1 [Compound 65]
≥ 80%: [1]; [8]

CN(C(=O)c1cc(-c2cnn(-c3c(OC(F)F)c(C(F)(F)C(F)(F)F)nn3C)c2)ccc1C#N)C1(C#N)CC1 [Compound 61]
≥ 80%: [1]; [8]

Cn1nc(C(F)(F)C(F)(F)F)c(OC(F)F)c1-n1cc(-c2ccc(Cl)c(C(=O)NC3(C#N)CC3)c2)nn1 [Compound 64, 2-Chloro-N-(1-cyanocyclopropyl)-5-[1-[4-(difluoromethoxy)-2-methyl-5-(1,1,2,2,2-pentafluoroethyl)pyrazol-3-yl]triazol-4-yl]benzamide]
≥ 80%: [1]; [8]

Cn1nc(C(F)(F)C(F)(F)F)c(OC(F)F)c1-n1cc(-c2cc(C(=O)NC3CC3)c(Cl)cc2F)cn1 [Compound 47]
≥ 80%: [6]; [11]

CN(C(=O)c1cc(-c2cnn(-c3c(OC(F)F)c(C(F)(F)C(F)(F)F)nn3C)c2)ccc1C#N)C1CC1 [Compound 59]
≥ 80%: [1]; [8]

C#Cc1c(C(F)(F)C(F)(F)F)nn(C)c1-n1cc(-c2ccc(Cl)c(C(=O)NC3(C#N)CC3)c2)cn1 [Compound 17]
≥ 80%: [1]; [8] | [2]; [9] | [3] | [5] | [6]; [11]

C#Cc1c(C(F)(F)C(F)(F)F)nn(C)c1-n1cc(-c2ccc(Cl)c(C(=O)NC3CC3)c2)cn1 [Compound 18]
≥ 80%: [4]; [10]

Cn1nc(C(F)(F)C(F)(F)F)c(OC(F)F)c1-n1cc(-c2ccc(Cl)c(C(=O)NC3CC3)c2)cn1 [Compound 2, 2-Chloro-N-cyclopropyl-5-[1-[4-(difluoromethoxy)-2-methyl-5-(1,1,2,2,2-pentafluoroethyl)-pyrazol-3-yl]pyrazol-4-yl]benzamide]
≥ 80%: [1]; [8] | [2]; [9] | [3] | [4]; [10] | [5] | [6]; [11]

CCN(C(=O)c1cc(-c2cnn(-c3c(OC(F)F)c(C(F)(F)C(F)(F)F)nn3C)c2)ccc1C#N)C1CC1 [Compound 58]
≥ 80%: [1]; [8]

Cn1nc(C(F)(F)C(F)(F)F)c(OC(F)(F)C(F)(F)C(F)(F)F)c1-n1cc(-c2ccc(Cl)c(C(=O)NC3CC3)c2)cn1 [Compound 45]
≥ 80%: [1] | [7] | [4] | [6]
